Source: patent US8426434B2, “Crystalline form of 4-[[4-[[4-(2-Cyanoethenyl)-2,6-dimethylphenyl]-amino]-2-pyrimidinyl]amino]benzonitrile” (Tibotec Pharmaceuticals Ltd., priority 2007, dated 2013)
Values after ≈ are worked out from the molar mass of the structure shown. Values joined by “and” are separate entries in the source; they are usually repeats but may differ in a detail not shown here. Equal entries are not always repeated. Where two headings read alike, the source gives them in different places.

Columns and labels:
[1] = Solubility in buffer pH4, buffer pH2 and 0.01N HCl; type: physicochemical
[2] = Intrinsic dissolution (USP dissolution apparatus 2, tablet in PTFE holder, UV at 266 nm); type: physicochemical; conditions: for average intrinsic dissolution rate / slope, average: average of samples 1-6, 0.01N HCl/methanol 1:1, 37° C.; for average intrinsic dissolution rate / slope, average / slope / intrinsic dissolution rate (IDR): 150 rpm; for slope, average: 0 to 60 min; for slope / intrinsic dissolution rate (IDR): single samples, 500 ml 0.01N HCl/methanol 1:1, 37° C.; for slope: slope calculated from 0 to 60 min; for intrinsic dissolution rate (IDR): tablet surface 0.5026 cm^2
Method: A Hanson Research SR6™ dissolution testing station equipped with a USP dissolution apparatus 2 as paddle and a poly(tetrafluoroethylene (PTFE) tablet holder was used. UV spectrometry was used to determine the concentration of TMC278 in solution. The UV analysis was carried out on an Agilent 8453™ spectrophotometer using a 2 ml cuvet. A single wavelength measurement at 266 nm was recorded with single component analysis (SCA), a single component measurement.
About 125 mg of the compound was weighed into a mould with a diameter of 0.8 cm. A tablet was made with a Speca press imposing a pressure of 1 ton for tabletting. The surface area of the tablet was 0.5026 cm^2. The tablet was adhered to the PTFE tablet holder.
21.8 mg of TMC278 was weighed into a volumetric flask of 25 ml. The product was dissolved in a 1:1.5 tetrahydrofuran/methanol mixture. A 1 ml aliquot was transferred into a 200 ml volumetric flask and diluted to the mark using 0.01N HCl. The concentration of the reference solution was […].
The tablet holders with the tablets were placed in a USP2 dissolution bath. The vessels contained 500 ml 0.01N HCl/methanol 1:1 and were thermostatically controlled at 37° C. The paddles were used with a rotation speed of 150 rpm (rounds per minute). A sample was withdrawn each 10 minutes and the concentration was determined with UV spectrometry. The slope was calculated on the measuring points between 0 and 60 minutes. The slope was expressed as mg %/minute. The intrinsic dissolution rate (IDR), expressed as mg/(cm^2×min), was calculated.

[3] = test system: drug and multidrug resistant HIV strains; conditions: in words; strains resistant to NNRTIs such as efavirenz, nevirapine, delavirdine; cited from earlier work
wild type HIV = conditions: in words; described in WO 03/16306; cited from earlier work

## Cc1cc(/C=C/C#N)cc(C)c1Nc1ccnc(Nc2ccc(C#N)cc2)n1 [TMC278 polymorph I, (E) 4-[[4-[[4-(2-cyanoethenyl)-2,6-dimethylphenyl]amino]-2-pyrimidinyl]amino]benzonitrile]
[1]; 0.01N HCl, pH 2.1
  Solubility: 4.1 mg/100 ml
[1]; Buffer pH4, pH 4.0
  Solubility: 0.07 mg/100 ml
[1]; buffer pH2, pH 2.1, aqueous buffer, Buffer pH2, pH 2.1, read-out: Solubility
  Solubility: 6.4 µg/mL (≈ 17.5 µM)
[1]; lower pH, in words
  solubility at lower pH, compared to Polymorph II: increased solubility at lower pH
[2]
  average intrinsic dissolution rate: 0.3362 mg/(cm^2 × min)
  slope, average: 0.0338 mg %/minute
  slope: 0.0358 mg %/minute and 0.0353 mg %/minute and 0.0309 mg %/minute and 0.0347 mg %/minute and 0.0343 mg %/minute and 0.0319 mg %/minute
  intrinsic dissolution rate (IDR): 0.3559 mg/(cm^2 × min) and 0.3508 mg/(cm^2 × min) and 0.3074 mg/(cm^2 × min) and 0.3447 mg/(cm^2 × min) and 0.3417 mg/(cm^2 × min) and 0.3169 mg/(cm^2 × min)
[2]; in words
  intrinsic dissolution rates, compared to Polymorph II: increased intrinsic dissolution rates

## Cc1cc(/C=C/C#N)cc(C)c1Nc1ccnc(Nc2ccc(C#N)cc2)n1 [TMC278 polymorph II, 4-[[4-[[4-(2-cyanoethenyl)-2,6-dimethylphenyl]-amino]-2-pyrimidinyl]-amino-]-benzonitrile, reference compound]
[1]; 0.01N HCl, pH 2.1
  Solubility: 1.9 mg/100 ml
[1]; Buffer pH4, pH 4.0
  Solubility: 0.03 mg/100 ml
[2]
  average intrinsic dissolution rate: 0.2886 mg/(cm^2 × min)
  slope, average: 0.0290 mg %/minute
  slope: 0.0283 mg %/minute and 0.0281 mg %/minute and 0.0290 mg %/minute and 0.0305 mg %/minute and 0.0288 mg %/minute and 0.0294 mg %/minute
  intrinsic dissolution rate (IDR): 0.2819 mg/(cm^2 × min) and 0.2795 mg/(cm^2 × min) and 0.2886 mg/(cm^2 × min) and 0.3035 mg/(cm^2 × min) and 0.2861 mg/(cm^2 × min) and 0.2921 mg/(cm^2 × min)
[2]; listed as polymorph II
  average intrinsic dissolution rate: 0.2886 mg/(cm^2 × min)

## Cc1cc(/C=C/C#N)cc(C)c1Nc1ccnc(Nc2ccc(C#N)cc2)n1 [TMC278, 4-[[4-[[4-(2-cyanoethenyl)-2,6-dimethylphenyl]-amino]-2-pyrimidinyl]-amino-]-benzonitrile]
[1]; water, in words
  solubility in water: relatively low solubility in water
[3]
  activity against drug and multidrug resistant HIV strains: shows activity
Wild type HIV
  activity against wild type HIV: pronounced activity
